# In US10513522B2, “Azetidinyl phenyl, pyridyl or pyrazinyl carboxamide derivatives as JAK inhibitors” (Incyte Corporation, priority 2011, dated 2019):
# Tested on: human JAK1 (a.a. 837-1142)
# Experiment: In vitro JAK kinase assay (HTRF, phosphorylation of biotinylated peptide), JAK1
# Type: biochemical
# Conditions: ratio of IC50 at 1 mM ATP
# Procedure: The catalytic activity of JAK1, JAK2 or JAK3 was assayed by measuring the phosphorylation of a biotinylated peptide. The phosphorylated peptide was detected by homogenous time resolved fluorescence (HTRF). […] Reactions were carried out at room temperature for 1 hour and then stopped with 20 μL 45 mM EDTA, 300 nM SA-APC, 6 nM Eu-Py20 in assay buffer (Perkin Elmer, Boston, Mass.). Binding to the Europium labeled antibody took place for 40 minutes and HTRF signal was measured on a Fusion plate reader (Perkin Elmer, Boston, Mass.).
row,Compound,JAK2/JAK1
1,"C[C@H](NC(=O)c1ccc(N2CC(CC#N)(n3cc(-c4ncnc5[nH]ccc45)cn3)C2)c(F)c1)C(F)(F)F [Example 10, 4-{3-(Cyanomethyl)-3-[4-(7H-pyrrolo[2,3-d]pyrimidin-4-yl)-1H-pyrazol-1-yl]azetidin-1-yl}-3-fluoro-N-[(1S)-2,2,2-trifluoro-1-methylethyl]benzamide]",A (A means greater than or equal to 10)
2,"CC(C)NC(=O)c1cc(F)c(N2CC(CC#N)(n3cc(-c4ncnc5[nH]ccc45)cn3)C2)cc1F [Example 6, 4-{3-(Cyanomethyl)-3-[4-(7H-pyrrolo[2,3-d]pyrimidin-4-yl)-1H-pyrazol-1-yl]azetidin-1-yl}-2,5-difluoro-N-isopropylbenzamide]",A (A means greater than or equal to 10)
3,"CC(C)NC(=O)c1ccc(N2CC(CC#N)(n3cc(-c4ncnc5[nH]ccc45)cn3)C2)c(F)c1 [Example 3, 4-{3-(Cyanomethyl)-3-[4-(7H-pyrrolo[2,3-d]pyrimidin-4-yl)-1H-pyrazol-1-yl]azetidin-1-yl}-3-fluoro-N-isopropylbenzamide]",A (A means greater than or equal to 10)
4,"C[C@H](NC(=O)c1ccc(N2CC(CC#N)(n3cc(-c4ncnc5[nH]ccc45)cn3)C2)cc1F)C1CCCCC1 [Example 15, 4-{3-(Cyanomethyl)-3-[4-(7H-pyrrolo[2,3-d]pyrimidin-4-yl)-1H-pyrazol-1-yl]azetidin-1-yl}-N-[(1S)-1-cyclohexylethyl]-2-fluorobenzamide]",A (A means greater than or equal to 10)
5,"N#CCC1(n2cc(-c3ncnc4[nH]ccc34)cn2)CN(c2ccc(C(=O)NC3CC(F)(F)C3)nc2)C1 [Example 12, 5-{3-(Cyanomethyl)-3-[4-(7H-pyrrolo[2,3-d]pyrimidin-4-yl)-1H-pyrazol-1-yl]azetidin-1-yl}-N-(3,3-difluorocyclobutyl)pyridine-2-carboxamide]",A (A means greater than or equal to 10)
6,"C[C@H](NC(=O)c1ccc(N2CC(CC#N)(n3cc(-c4ncnc5[nH]ccc45)cn3)C2)cn1)C1CC1 [Example 11, 5-{3-(Cyanomethyl)-3-[4-(7H-pyrrolo[2,3-d]pyrimidin-4-yl)-1H-pyrazol-1-yl]azetidin-1-yl}-N-[(1S)-1-cyclopropylethyl]pyridine-2-carboxamide]",A (A means greater than or equal to 10)
7,"CC(NC(=O)c1ccc(N2CC(CC#N)(n3cc(-c4ncnc5[nH]ccc45)cn3)C2)cc1)C1CCN(C)CC1 (stereo not drawn) [Example 20, 4-{3-(Cyanomethyl)-3-[4-(7H-pyrrolo[2,3-d]pyrimidin-4-yl)-1H-pyrazol-1-yl]azetidin-1-yl}-N-[1-(1-methylpiperidin-4-yl)ethyl]benzamide]",A (A means greater than or equal to 10)
8,"CC(C)NC(=O)c1ccc(N2CC(CC#N)(n3cc(-c4ccnc5[nH]ccc45)cn3)C2)cc1 [Example 1, 4-{3-(Cyanomethyl)-3-[4-(1H-pyrrolo[2,3-b]pyridin-4-yl)-1H-pyrazol-1-yl]azetidin-1-yl}-N-isopropylbenzamide]",A (A means greater than or equal to 10)
9,"CC[C@@H](C)NC(=O)c1ccc(N2CC(CC#N)(n3cc(-c4ncnc5[nH]ccc45)cn3)C2)cc1.O=C(O)C(F)(F)F.O=C(O)C(F)(F)F [Example 25, 4-{3-(Cyanomethyl)-3-[4-(7H-pyrrolo[2,3-d]pyrimidin-4-yl)-1H-pyrazol-1-yl]azetidin-1-yl}-N-[(1R)-1-methylpropyl]benzamide bis(trifluoroacetate)]",A (A means greater than or equal to 10)
10,"C[C@@H](NC(=O)c1ccc(N2CC(CC#N)(n3cc(-c4ncnc5[nH]ccc45)cn3)C2)c(F)c1)C(F)(F)F [Example 16, 4-{3-(Cyanomethyl)-3-[4-(7H-pyrrolo[2,3-d]pyrimidin-4-yl)-1H-pyrazol-1-yl]azetidin-1-yl}-3-fluoro-N-[(1R)-2,2,2-trifluoro-1-methylethyl]benzamide]",A (A means greater than or equal to 10)

# Continued, values first:
row,JAK2/JAK1,Compound
1,A (A means greater than or equal to 10),"N#CCC1(n2cc(-c3ncnc4[nH]ccc34)cn2)CN(c2cnc(C(=O)NC3(C(F)(F)F)CC3)cn2)C1 [Example 33, 5-{3-(Cyanomethyl)-3-[4-(7H-pyrrolo[2,3-d]pyrimidin-4-yl)-1H-pyrazol-1-yl]azetidin-1-yl}-N-[1-(trifluoromethyl)cyclopropyl]pyrazine-2-carboxamide]"
2,A (A means greater than or equal to 10),"C[C@H](NC(=O)c1cnc(N2CC(CC#N)(n3cc(-c4ccnc5[nH]ccc45)cn3)C2)cn1)C(F)(F)F [Example 35, 5-{3-(Cyanomethyl)-3-[4-(1H-pyrrolo[2,3-b]pyridin-4-yl)-1H-pyrazol-1-yl]azetidin-1-yl}-N-[(1S)-2,2,2-trifluoro-1-methylethyl]pyrazine-2-carboxamide]"
3,A (A means greater than or equal to 10),"C[C@H](NC(=O)c1cnc(N2CC(CC#N)(n3cc(-c4ccnc5[nH]ccc45)cn3)C2)cn1)C1CC1 [Example 41, 5-{3-(Cyanomethyl)-3-[4-(1H-pyrrolo[2,3-b]pyridin-4-yl)-1H-pyrazol-1-yl]azetidin-1-yl}-N-[(1S)-1-cyclopropylethyl]pyrazine-2-carboxamide]"
4,A (A means greater than or equal to 10),"C[C@@H](NC(=O)c1cc(F)c(N2CC(CC#N)(n3cc(-c4ncnc5[nH]ccc45)cn3)C2)cc1F)C1CC1 [Example 21, 4-{3-(Cyanomethyl)-3-[4-(7H-pyrrolo[2,3-d]pyrimidin-4-yl)-1H-pyrazol-1-yl]azetidin-1-yl}-N-[(1R)-1-cyclopropylethyl]-2,5-difluorobenzamide]"
5,A (A means greater than or equal to 10),"C[C@@H](NC(=O)c1cc(F)c(N2CC(CC#N)(n3cc(-c4ncnc5[nH]ccc45)cn3)C2)cc1F)C(F)(F)F [Example 29, 4-{3-(Cyanomethyl)-3-[4-(7H-pyrrolo[2,3-d]pyrimidin-4-yl)-1H-pyrazol-1-yl]azetidin-1-yl}-2,5-difluoro-N-[(1R)-2,2,2-trifluoro-1-methylethyl]benzamide]"
6,A (A means greater than or equal to 10),"N#CCC1(n2cc(-c3ccnc4[nH]ccc34)cn2)CN(c2ccc(C(=O)NC3(C(F)(F)F)CC3)nc2)C1 [Example 40, 5-{3-(Cyanomethyl)-3-[4-(1H-pyrrolo[2,3-b]pyridin-4-yl)-1H-pyrazol-1-yl]azetidin-1-yl}-N-[1-(trifluoromethyl)cyclopropyl]pyridine-2-carboxamide]"
7,A (A means greater than or equal to 10),"N#CCC1(n2cc(-c3ccnc4[nH]ccc34)cn2)CN(c2cnc(C(=O)NCC(F)(F)F)cn2)C1 [Example 36, 5-{3-(Cyanomethyl)-3-[4-(1H-pyrrolo[2,3-b]pyridin-4-yl)-1H-pyrazol-1-yl]azetidin-1-yl}-N-(2,2,2-trifluoroethyl)pyrazine-2-carboxamide]"
8,A (A means greater than or equal to 10),"C[C@H](NC(=O)c1cnc(N2CC(CC#N)(n3cc(-c4ncnc5[nH]ccc45)cn3)C2)cn1)C(F)(F)F [Example 31, 5-{3-(Cyanomethyl)-3-[4-(7H-pyrrolo[2,3-d]pyrimidin-4-yl)-1H-pyrazol-1-yl]azetidin-1-yl}-N-[(1S)-2,2,2-trifluoro-1-methylethyl]pyrazine-2-carboxamide]"
